# Source: ChEMBL document CHEMBL2029343, “Stereoselective synthesis of alpinoid-C and its analogues and study of their cytotoxic activity against cancer cell lines” (Bioorg Med Chem Lett, 2012)
# Columns and labels:
# Type in all cases: functional, cell-based
# B16-F10 = experiment: Antiproliferative activity against mouse B16F10 cells after 48 hrs by MTT assay; conditions: B16-F10, 48 h
# COLO 205 = experiment: Antiproliferative activity against human COLO205 cells after 48 hrs by MTT assay; conditions: COLO 205, 48 h
# HepG2 = experiment: Antiproliferative activity against human HepG2 cells after 48 hrs by MTT assay; conditions: HepG2, 48 h
# THP-1 = experiment: Antiproliferative activity against human THP1 cells after 48 hrs by MTT assay; conditions: THP-1, 48 h
# U-937 = experiment: Antiproliferative activity against human U937 cells after 48 hrs by MTT assay; conditions: U-937, 48 h
Structure (SMILES),IC50 (B16-F10),IC50 (COLO 205),IC50 (HepG2),IC50 (THP-1),IC50 (U-937)
O=C(/C=C/[C@H](O)Cc1ccccc1)CCc1ccccc1,130 µM,195 µM,185 µM,120 µM,139 µM
O=C(/C=C/[C@@H](O)Cc1ccccc1)CCc1ccccc1,337 µM,498 µM,355 µM,195 µM,168 µM
COc1ccc(CCC(=O)/C=C/[C@H](O)Cc2ccccc2)cc1OC,38.1 µM,11.1 µM,32.6 µM,7.53 µM,22.3 µM
COc1ccc(CCC(=O)/C=C/[C@@H](O)Cc2ccccc2)cc1OC,96.9 µM,7.21 µM,53.5 µM,32.3 µM,31.9 µM
COc1cc([C@@H]2c3cc4c(cc3[C@@H](O[C@@H]3O[C@@H]5CO[C@@H](C)O[C@H]5[C@H](O)[C@H]3O)[C@H]3COC(=O)[C@H]23)OCO4)cc(OC)c1O [ETOPOSIDE],18.7 µM,0.43 µM,4.76 µM,–,–
